The molecules below were run against T1, Recombinant human KIF18A (1-467 His-tagged) protein (Homo sapiens, UniProt Q8NI77) (assay: KIF18A Enzyme Assay (microtubule-stimulated ATPase activity, ADP-Glo)). Conditions: 30 nM KIF18A, 30 μg/mL pig microtubules, 75 μM ATP, ADP-Glo luminescence.
T1 construct: Recombinant human KIF18A (1-467 His-tagged) protein; His
Assay type: biochemical
Excerpt: KIF18A Enzyme Assay: Microtubule-stimulated ATPase activity assay is used to measure KIF18A enzyme activity after treatment with compound. Compounds were 2-fold serially diluted in DMSO (Sigma Inc) over 22-point concentration range. Recombinant human KIF18A (1-467 His-tagged) protein was expressed using a baculovirus system and purified by affinity chromatography by Amgen Inc. Concentrations of KIF18A protein, microtubules (MT), and ATP in the reaction were optimized for standardized homogenous enzyme assay using ADP-Glo™ Kinase/ATPase Assay Kit (Promega Inc). The assay measures ADP formed from the ATPase reaction. Prepare reaction buffer [(15 mM Tris, pH 7.5 (Teknova Inc), 10 mM MgCl2 (IT Baker Inc), 0.01% Pluronic F-68 (Life Technologies Inc), 1 μM Taxol (Cytoskeleton Inc), and 30 μg/mL pig microtubules (Cytoskeleton Inc)]. Add compound and KIF18A protein (30 nM) to prepared reaction buffer and incubated for 15 minutes at room temperature, next add ATP (at Kin, 75 μM) to the reaction mixture and incubated for an additional 15 minutes at room temperature. Mix 5 μl of ADP-Glor™ Reagent and 2.5 μl of the reaction mixture and incubate for 40 minutes at room temperature. Add 10 μl ADP-Glorh Detection Reagent and incubate for 40 minutes at room temperature. Read luminescence using EnVision microplate reader with ultra-luminescence module (Perkin Elmer Inc). Concentration-response curve-fitting and IC50 determination was performed using Genedata Screener Software (Standard 15.0.1, Genedata Inc) with a four-parameter logistic regression fit model.

T1 sequence (Q8NI77 1-467): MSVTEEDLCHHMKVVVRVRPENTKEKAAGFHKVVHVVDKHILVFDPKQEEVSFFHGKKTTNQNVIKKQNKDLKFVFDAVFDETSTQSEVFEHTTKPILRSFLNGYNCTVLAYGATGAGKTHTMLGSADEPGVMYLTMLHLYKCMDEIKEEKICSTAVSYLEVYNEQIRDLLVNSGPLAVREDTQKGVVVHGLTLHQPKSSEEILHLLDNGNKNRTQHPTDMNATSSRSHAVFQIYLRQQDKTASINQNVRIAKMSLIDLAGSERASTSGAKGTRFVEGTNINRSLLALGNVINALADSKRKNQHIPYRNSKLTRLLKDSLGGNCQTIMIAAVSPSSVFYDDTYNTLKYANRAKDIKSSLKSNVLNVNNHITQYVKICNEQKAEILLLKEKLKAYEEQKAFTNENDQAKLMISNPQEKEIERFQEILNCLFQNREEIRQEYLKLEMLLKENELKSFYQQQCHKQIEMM
T1 sequence (P02550 whole entry partner): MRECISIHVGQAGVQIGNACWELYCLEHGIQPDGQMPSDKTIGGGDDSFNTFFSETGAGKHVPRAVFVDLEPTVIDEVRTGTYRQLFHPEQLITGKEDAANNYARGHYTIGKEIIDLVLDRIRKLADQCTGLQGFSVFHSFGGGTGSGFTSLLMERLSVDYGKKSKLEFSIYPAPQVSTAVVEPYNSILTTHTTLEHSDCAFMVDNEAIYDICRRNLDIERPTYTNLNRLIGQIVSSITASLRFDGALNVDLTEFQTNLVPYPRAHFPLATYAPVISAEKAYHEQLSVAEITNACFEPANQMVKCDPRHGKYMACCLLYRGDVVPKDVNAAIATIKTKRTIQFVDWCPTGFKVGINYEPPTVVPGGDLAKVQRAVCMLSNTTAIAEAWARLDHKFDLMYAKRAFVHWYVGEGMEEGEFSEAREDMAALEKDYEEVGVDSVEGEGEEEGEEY
T1 sequence (P02554 whole entry partner): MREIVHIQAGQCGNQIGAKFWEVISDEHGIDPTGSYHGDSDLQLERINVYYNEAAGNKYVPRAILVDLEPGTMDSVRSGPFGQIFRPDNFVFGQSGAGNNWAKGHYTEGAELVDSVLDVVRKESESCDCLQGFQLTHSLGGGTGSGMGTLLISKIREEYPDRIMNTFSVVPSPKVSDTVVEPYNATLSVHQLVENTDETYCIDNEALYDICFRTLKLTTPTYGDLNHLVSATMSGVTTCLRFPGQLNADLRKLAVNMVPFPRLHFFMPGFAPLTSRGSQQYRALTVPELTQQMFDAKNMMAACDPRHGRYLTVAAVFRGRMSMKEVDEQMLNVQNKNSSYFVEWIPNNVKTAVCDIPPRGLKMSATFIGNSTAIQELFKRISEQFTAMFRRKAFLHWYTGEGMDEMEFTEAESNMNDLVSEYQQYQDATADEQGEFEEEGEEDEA

**Q.** With Cc1cc(Nc2ncnc3cc(NS(=O)(=O)CCO)cc(N4CCC5(CC4)CC5)c23)nc(N2CCC(F)(F)CC2)c1 [Example 105-1, N-(4-((6-(4,4-Difluoropiperidin-1-yl)-4-methylpyridin-2-yl)amino)-5-(6-azaspiro[2.5]octan-6-yl)quinazolin-7-yl)-2-hydroxyethane-1-sulfonamide] as the molecule, how does the IC50 read?
**A.** The IC50 was 78 nM.

**Q.** How did the IC50 turn out when Cc1cc(Nc2ncnc3cc(NS(=O)(=O)CCO)cc(N4CCC5(CC4)CC5)c23)cc(N2CCC(F)(F)CC2)n1 [Example 105, N-(4-((2-(4,4-Difluoropiperidin-1-yl)-6-methylpyridin-4-yl)amino)-5-(6-azaspiro[2.5]octan-6-yl)quinazolin-7-yl)-2-hydroxyethane-1-sulfonamide] was run?
**A.** The IC50 was 82 nM.

**Q.** For Cc1cc(Nc2ncnc3cc([S@](=N)(=O)C4CC4)cc(N4CCC5(CC4)CC5)c23)cc(N2CCC(F)(F)CC2)c1 (single isomer, unassigned) [Example 102-1], which IC50 is on record?
**A.** Its IC50 is 73 nM.

**Q.** For Cc1cc(C)cc(Nc2ncnc3cc(NS(=O)(=O)CCO)cc(N4CCC5(CC4)CC5)c23)c1 [Example 103-1, N-(4-((3,5-Dimethylphenyl)amino)-5-(6-azaspiro[2.5]octan-6-yl)quinazolin-7-yl)-2-hydroxyethane-1-sulfonamide], which IC50 is on record?
**A.** The IC50 was 403 nM.

**Q.** For Cc1cc(Nc2ncnc3cc(NS(=O)(=O)CCO)cc(N4CCC5(CC4)CC5)c23)cc(OCCC(F)(F)F)c1 [Example 103, 2-Hydroxy-N-(4-((3-methyl-5-(3,3,3-trifluoropropoxy)phenyl)amino)-5-(6-azaspiro[2.5]octan-6-yl)quinazolin-7-yl)ethane-1-sulfonamide], which IC50 is on record?
**A.** The IC50 was 175 nM.

**Q.** Which IC50 does the source give for Cc1cc(Nc2ncnc3cc(NS(=O)(=O)CCO)cc(N4CCC5(CC4)CC5)c23)nc(N2CCC(F)(F)CC2)n1 [Example 104, N-(4-((2-(4,4-Difluoropiperidin-1-yl)-6-methylpyrimidin-4-yl)amino)-5-(6-azaspiro[2.5]octan-6-yl)quinazolin-7-yl)-2-hydroxyethane-1-sulfonamide] here?
**A.** The IC50 was 129 nM.

**Q.** How did the IC50 turn out when Cc1cc(Nc2ncnc3cc(NS(=O)(=O)CCO)cc(N4CCC5(CC4)CC5)c23)cc(N2CCC(F)(F)CC2)c1 [Example 100, N-(4-((3-(4,4-Difluoropiperidin-1-yl)-5-methylphenyl)amino)-5-(6-azaspiro[2.5]octan-6-yl)quinazolin-7-yl)-2-hydroxyethane-1-sulfonamide] was run?
**A.** Its IC50 is 49 nM.

**Q.** With Cc1cc(Nc2ncnc3cc([S@@](=N)(=O)C4CC4)cc(N4CCC5(CC4)CC5)c23)cc(N2CCC(F)(F)CC2)c1 (single isomer, unassigned) [Example 102-2] as the molecule, how does the IC50 read?
**A.** Its IC50 is 262 nM.

**Q.** For Cc1cc(Nc2nc(C)nc3cc(NS(=O)(=O)CCO)cc(N4CCC5(CC4)CC5)c23)cc(N2CCC(F)(F)CC2)c1 [Example 100-1, N-(4-((3-(4,4-Difluoropiperidin-1-yl)-5-methylphenyl)amino)-2-methyl-5-(6-azaspiro[2.5]octan-6-yl)quinazolin-7-yl)-2-hydroxyethane-1-sulfonamide], which IC50 is on record?
**A.** The IC50 was 955 nM.

**Q.** With Cc1cc(Nc2nncc3cc(NS(=O)(=O)CCO)cc(N4CCC5(CC4)CC5)c23)cc(N2CCC(F)(F)CC2)c1 [Example 106, N-(1-((3-(4,4-Difluoropiperidin-1-yl)-5-methylphenyl)amino)-8-(6-azaspiro[2.5]octan-6-yl)phthalazin-6-yl)-2-hydroxyethane-1-sulfonamide] as the molecule, how does the IC50 read?
**A.** The IC50 was 25 nM.

**Q.** Which IC50 does the source give for Cc1cc(Oc2ncnc3cc(NS(=O)(=O)CCO)cc(N4CCC5(CC4)CC5)c23)cc(N2CCC(F)(F)CC2)c1 [Example 105-2, N-(4-(3-(4,4-Difluoropiperidin-1-yl)-5-methylphenoxy)-5-(6-azaspiro[2.5]octan-6-yl)quinazolin-7-yl)-2-hydroxyethane-1-sulfonamide] here?
**A.** Its IC50 is 2840 nM.

**Q.** How did the IC50 turn out when O=S(=O)(CCO)Nc1cc(N2CCC3(CC2)CC3)c2c(Nc3cccc(OCCC(F)(F)F)c3)ncnc2c1 [Example 103-2, N-(5-(6-Azaspiro[2.5]octan-6-yl)-4-((3-(3,3,3-trifluoropropoxy)phenyl)amino)quinazolin-7-yl)-2-hydroxyethane-1-sulfonamide] was run?
**A.** The IC50 was 61 nM.

**Q.** Which IC50 does the source give for Cc1cc(Nc2ncnc3cccc(N4CCC5(CC4)CC5)c23)cc(N2CCC(F)(F)CC2)c1 [Example 101-1, N-(3-(4,4-Difluoropiperidin-1-yl)-5-methylphenyl)-5-(6-azaspiro[2.5]octan-6-yl)quinazolin-4-amine] here?
**A.** Its IC50 is 3340 nM.

**Q.** With Cc1cc(Nc2ncnc3cc(S(C)(=O)=O)cc(N4CCC5(CC4)CC5)c23)cc(N2CCC(F)(F)CC2)c1 [Example 101, N-(3-(4,4-Difluoropiperidin-1-yl)-5-methylphenyl)-7-(methylsulfonyl)-5-(6-azaspiro[2.5]octan-6-yl)quinazolin-4-amine] as the molecule, how does the IC50 read?
**A.** The IC50 was 940 nM.
